Experiments:
[1] = test system: Pseudocercosporella herpotrichoides; test: In vitro fungicidal evaluation, growth inhibition (PSDCHE); assay type: cell-based; parameters: scale not given here; conditions: 25 ppm, 3-4 days at 21° C.
Description: (§1) Test compounds are dissolved in acetone and dispersed into cell well plates containing a suspension of ground fungal mycelia in a nutrient broth. Assay plates are incubated for 3-4 days at 21° C. Growth inhibition is measured visually and is rated using the following scale:
(§2) Untreated controls, solvent blanks and reference standards are included in each test.
(§3) Assay fungi include the plant pathogens, Pythium ultimum (Pythul); Rhizoctonia solani (Rhizso); Fusarium oxysporum f. sp. cucumerinum (Fusoxc); and Pseudocercosporella herpotrichoides (Psdche).
(§4) When more than one test is run, the data are averaged.

[2] = test system: Fusarium oxysporum f. sp. cucumerinum; test: In vitro fungicidal evaluation, growth inhibition (FUSOXC); assay type: cell-based; parameters: scale not given here; conditions: 25 ppm, 3-4 days at 21° C.
Description: as §1, §2, §3, §4

[3] = test system: Rhizoctonia solani; test: In vitro fungicidal evaluation, growth inhibition (RHIZSO); assay type: cell-based; parameters: scale not given here; conditions: 25 ppm, 3-4 days at 21° C.
Description: as §1, §2, §3, §4

[4] = test system: Pythium ultimum; test: In vitro fungicidal evaluation, growth inhibition (PYTHUL); assay type: cell-based; parameters: scale not given here; conditions: 25 ppm, 3-4 days at 21° C.
Description: as §1, §2, §3, §4

[5] = test system: Erysiphe graminis f. sp. tritici; test: In vivo fungicidal evaluation, Wheat Powdery Mildew (WPM); conditions: 200 ppm, plants sprayed before inoculation
[6] = test system: Botrytis cinerea; test: In vivo fungicidal evaluation, Pepper Botrytis (PB); conditions: 200 ppm, plants sprayed before inoculation
[7] = test system: Pyricularia oryzae; assay type: in vivo; conditions: 200 ppm, plants sprayed before inoculation
[8] = test system: Alternaria solani; test: In vivo fungicidal evaluation, Tomato Early Blight (TEB); conditions: 200 ppm, plants sprayed before inoculation
[9] = test system: Cercospora beticola; test: In vivo fungicidal evaluation, Sugar Beet Cercospora (SBC); conditions: plants sprayed before inoculation
[10] = test system: Plasmopara viticola; test: In vivo fungicidal evaluation, Grape Downy Mildew (GDM); conditions: 200 ppm, plants sprayed before inoculation
[11] = test system: Venturia inaequalis; test: In vivo fungicidal evaluation, Apple Scab (AS); conditions: 200 ppm, plants sprayed before inoculation

| SMILES | growth inhibition rating, PSDCHE [1] | growth inhibition rating, FUSOXC [2] | growth inhibition rating, RHIZSO [3] | growth inhibition rating, PYTHUL [4] | disease control rating, WPM [5] | disease control rating, PB [6] | disease control rating, RB [7] | disease control rating, TEB [8] | disease control rating, SBC ([9]; 200 ppm) | disease control rating, GDM [10] | disease control rating, AS [11] | disease control rating, SBC ([9]; 400 ppm) |
| --- | --- | --- | --- | --- | --- | --- | --- | --- | --- | --- | --- | --- |
| CC(C)(C)C(=O)C(=S)N(Cc1ccccc1)OC(=O)Nc1ccccc1 [Carbanilate ester of N-benzyl-3,3-dimethyl-2-oxo-1-thiobutyrohydroxamate] | 0.0 | 0.5 | 2.5 | 6.0 | – | – | – | – | – | – | – | – |
| CN(O)C(=S)C(=O)C1(C)CC1 [N,1-dimethyl-alpha-thio-cyclopropaneglyoxylohydroxamic acid] | 0.0 | 0.5 | 0.0 | 7.0 | – | – | – | – | – | – | – | – |
| CC(C)(C)C(=O)C(=S)N([O-])Cc1ccccc1.CC(C)(C)C(=O)C(=S)N([O-])Cc1ccccc1.[Cu+2] [N-benzyl-3,3-dimethyl-2-oxo-1-thiobutyrohydroxamic acid copper(+2) chelate] | 0.0 | 0.0 | 1.5 | 1.5 | – | – | – | – | – | – | – | – |
| CC(C)(C)C(=O)C(=S)N([O-])Cc1ccccc1.CC(C)(C)C(=O)C(=S)N([O-])Cc1ccccc1.[Zn+2] [N-benzyl-3,3-dimethyl-2-oxo-1-thiobutyrohydroxamic acid zinc(+2) chelate] | 0.0 | 0.0 | 0.0 | 4.0 | 0.0 | 0.0 | 0.0 | 0.0 | 6.0 | 0.0 | 0.0 | – |
| CC(C)(C)C(=O)C(=S)N(O)Cc1ccccc1 [N-benzyl-3,3-dimethyl-2-oxo-1-thiobutyrohydroxamic acid] | 7.0 | 3.5 | 4.5 | 7.0 | – | – | – | – | – | – | – | – |
| CC(C)(C)C(=O)C(=S)N([O-])C1CCCC1.CC(C)(C)C(=O)C(=S)N([O-])C1CCCC1.[Cu+2] [N-cyclopentyl-3,3-dimethyl-2-oxo-1-thiobutyrohydroxamic acid copper(+2) chelate] | 0.0 | 0.0 | 0.0 | 0.0 | 0.0 | 0.0 | 0.0 | 0.0 | 0.5 | 0.0 | 0.0 | 2.0 |
| CC(C)(C)C(=O)C(=S)N(O)C1CCCC1.CC(C)(C)C(=O)C(=S)N(O)C1CCCC1.[Zn+2] [N-cyclopentyl-3,3-dimethyl-2-oxo-1-thiobutyrohydroxamic acid zinc(+2) chelate] | 3.0 | 3.7 | 3.3 | 7.0 | 0.0 | 0.0 | 0.0 | 0.0 | 2.3 | 0.0 | 0.0 | 1.0 |
| CC(C)(C)C(=O)C(=S)N(O)C1CCCC1 [N-cyclopentyl-3,3-dimethyl-2-oxo-1-thiobutyrohydroxamic acid] | 1.5 | 1.5 | 1.5 | 3.0 | 0.0 | 0.0 | 0.0 | 0.0 | 0.3 | 0.0 | 0.0 | – |
| CC(C)(C)C(=O)C(=S)N([O-])C1CCCC1.CC(C)(C)C(=O)C(=S)N([O-])C1CCCC1.CC(C)(C)C(=O)C(=S)N([O-])C1CCCC1.[Fe+3] [N-cyclopentyl-3,3-dimethyl-2-oxo-1-thiobutyrohydroxamicacid iron(+3) chelate] | 0.0 | 0.0 | 0.0 | 0.0 | 0.0 | 0.0 | 0.0 | 0.0 | 0.8 | 0.0 | 0.0 | 1.8 |
| CC(C)N([O-])C(=S)C(=O)C(C)(C)C.CC(C)N([O-])C(=S)C(=O)C(C)(C)C.[Zn+2] [N-isopropyl-3,3-dimethyl-2-oxo-1-thiobutyrohydroxamic acid zinc (+2) chelate] | 0.0 | 2.7 | 1.0 | 6.3 | 0.0 | 2.0 | 0.0 | 0.0 | 0.0 | 3.0 | 0.0 | – |
| CN([O-])C(=S)C(=O)C12CC3CC(CC(C3)C1)C2.CN([O-])C(=S)C(=O)C12CC3CC(CC(C3)C1)C2.[Cu+2] [N-methyl-alpha-thio-1-adamantaneglyoxylohydroxamic acid copper(+2) chelate] | 0.0 | 0.0 | 0.0 | 0.0 | 0.0 | 0.0 | 0.0 | 0.0 | 0.5 | 0.0 | 0.0 | 1.8 |
| CN(O)C(=S)C(=O)C12CC3CC(CC(C3)C1)C2 [N-methyl-α-thio-1-adamantaneglyoxylohydroxamic acid] | 3.3 | 1.7 | 1.0 | 7.0 | 0.0 | 0.0 | 0.0 | 0.0 | 1.8 | 0.0 | 0.0 | 3.0 |
| CC(=O)ON(C)C(=S)C(=O)C(C)(C)C [acetate ester of N,3,3-trimethyl-2oxo-1-thiobutyrohydroxamate] | 0.0 | 0.0 | 0.0 | 9.0 | 0.0 | 0.0 | 0.0 | 5.0 | 0.0 | 0.0 | 0.0 | – |
| C=CC(=O)ON(C)C(=S)C(=O)C(C)(C)C [acrylate ester of N,3,3-trimethyl-2-oxo-1-thiobutyrohydroxamate] | 7.0 | 0.0 | 0.0 | 9.0 | 0.0 | 2.0 | 0.0 | 0.0 | 0.0 | 0.0 | 0.0 | – |

From patent publication US5342980A, “Fungicidal agents” (American Cyanamid Company, priority 1992, dated 1994)
